Test results taken from ChEMBL document CHEMBL1152106, “Derivatives of 5-amidine indole as inhibitors of thrombin catalytic activity” (Bioorg Med Chem Lett, 1996).

What follows are molecules tested against T1, Prothrombin (Homo sapiens, UniProt P00734) (assay: Compound was evaluated for inhibition of human alpha-thrombin catalytic activity).

Row | Ki [µM] | SMILES
1 | 0.26 | N=C(N)c1ccc2[nH]c(Cc3ccccc3)cc2c1

What follows are molecules tested against T1, Prothrombin (assay: Compound was evaluated for inhibition of human alpha-thrombin catalytic activity.).

Row | SMILES | IC50 [µM]
2 | N=C(N)c1ccc2[nH]c(Cc3cccc(CCc4ccccc4)c3)cc2c1 | 2.4
3 | N=C(N)c1ccc2[nH]c(-c3ccccc3O)cc2c1 | 38
4 | N=C(N)c1ccc2[nH]c(Cc3ccccc3)cc2c1 | 1.4
5 | N=C(N)c1ccc2[nH]c3c(c2c1)CCCC3 | 20
6 | N=C(N)c1ccc2[nH]c(Cc3cccc(Oc4ccccc4)c3)cc2c1 | 2

Continued by falling IC50, values first:

Row | IC50 [µM] | SMILES
7 | 66 | Cc1c(-c2ccccc2)[nH]c2ccc(C(=N)N)cc12
8 | 59 | NCc1ccc2[nH]c(C(Cc3ccccc3F)c3ccccc3F)cc2c1 (configuration not stated)
9 | 36 | N=C(N)c1ccc2[nH]c(Cc3ccccc3F)cc2c1
10 | 22 | N=C(N)c1ccc2[nH]ccc2c1
11 | 19 | N=C(N)c1ccc2[nH]c(-c3ccccc3)cc2c1
12 | 15 | N=C(N)c1ccc2[nH]c(C(Cc3ccccc3F)c3ccccc3F)cc2c1 (configuration not stated)
